This test deals with K-Ras G12C (Homo sapiens, UniProt P01116, G12C). Put plainly: Fluorescence polarization assay of K-Ras G12C binding to Oregon green labelled RBD. The conditions noted are these: for EC50: Ras:Raf (RBD) binding, 95% CI given alongside, read-out: EC50 of nucleotide:Ras complex for RBD. The text has this: Oregon green (OG) fluorescent dye was coupled to this cysteine in RBD using maleimide chemistry resulting in covalent addition of one OG, as verified by chromatography and mass spectrometry.
This allowed the testing of multiple nucleotides for their ability to induce Ras:Raf binding.

In the case of `CCCC(CCC)COC(=O)[C@H](C)NP(=O)(OCCNC(=O)CCl)OP(=O)(O)OC[C@H]1O[C@@H](n2cnc3c(=O)[nH]c(N)nc32)[C@H](O)[C@@H]1O` (stereo partly drawn) [Example 3, (2S)-2-propylpentyl 2-(((((((2R,3S,4R,5R)-5-(2-amino-6-oxo-1H-purin-9(6H)-yl)-3,4-dihydroxytetrahydrofuran-2-yl)methoxy)(hydroxy)phosphoryl)oxy)(2-(2-chloroacetamido)ethoxy)phosphoryl)amino)propanoate], under “added at a 1:10 molar ratio to G12C K-Ras prior to the assay”, the “Effect on binding of G12C K-Ras to the RBD protein” value is given as “appeared to prevent binding”.
The term EC50 denotes the concentration giving half of the maximal effect. On to `Nc1nc2c(ncn2[C@@H]2O[C@H](COP(=O)(O)OP(=O)(O)OP(=O)(O)O)[C@@H](O)[C@H]2O)c(=O)[nH]1` [GTP], for which, where the note is “fluorescence polarization, OG-labelled RBD, recombinant K-Ras G12C bound to the named ligand”, the “Interaction of ligand-bound K-Ras G12C with RBD” value is on record as “higher affinity for RBD than the GDP bound form”. Besides, for the setting “fluorescence polarization”, the concentration for a half-maximal effect (EC50) was found to be 26 nM.
Take `Nc1nc2c(ncn2[C@@H]2O[C@H](COP(=O)(O)OP(=O)(O)O)[C@@H](O)[C@H]2O)c(=O)[nH]1` [GDP]: where the note is “fluorescence polarization”, the EC50 came out at 108 nM.

The record behind these values is patent US10723753B2, “Ras inhibitors and uses thereof” (Dana-Farber Cancer Institute, Inc., priority 2013, dated 2020).
